In US5618675A, “Methods and compositions for detecting lipopolysaccharides using CAP18 fragments” (Panorama Research, Inc., dated 1997):
Read-outs that look alike come from different tables or passages of the source.

Tests used:
factor Xa = biological target: T1, factor Xa (Homo sapiens, UniProt P00742); assay: Direct inhibition of Xa, substrate S2222; type: biochemical; conditions: for direct Xa inhibition: concentrations over 10 μg/ml, substrate S2222; for IC50 / IC50, Direct Xa: synthetic substrate
T1 construct: purchased Sigma Chemical Co., St. Louis, Mo
T1 sequence (P00742 41-179 limits assumed): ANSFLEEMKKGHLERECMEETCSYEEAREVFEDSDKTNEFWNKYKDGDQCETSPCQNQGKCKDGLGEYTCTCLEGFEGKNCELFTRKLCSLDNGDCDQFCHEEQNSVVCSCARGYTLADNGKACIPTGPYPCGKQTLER
T1 sequence (P00742 235-488 limits assumed): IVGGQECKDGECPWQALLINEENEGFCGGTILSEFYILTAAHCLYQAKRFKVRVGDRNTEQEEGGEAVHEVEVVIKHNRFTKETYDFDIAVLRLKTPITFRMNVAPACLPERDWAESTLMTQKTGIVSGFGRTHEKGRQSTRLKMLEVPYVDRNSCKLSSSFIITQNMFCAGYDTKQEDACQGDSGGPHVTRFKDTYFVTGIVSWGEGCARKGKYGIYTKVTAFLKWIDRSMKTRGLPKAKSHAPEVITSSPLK
Excerpt: (§1) Clotting method: Human plasma (Ortho plasma control, Ortho Diagnostic Co.). ATPP reagent (Organotechnika, Tokyo, Japan). Standard tissue factor, rabbit brain thromboplastin (Simplastin, ONO Pharmaceutical, Tokyo, Japan). Purified human factor VII, factor X, factor Xa (Sigma Chemical Co., St. Louis, Mo.). Russell Viper venom (RVV) and Echis carinatus venom (ECV, Sigma Co.).
(§2) Synthetic chromogenic substrate method: Substrate for factor Xa, S2222 (Kabi, Bz-Ile-Glu-Arg-pNA) was used. Substrate for factor II (prothrombin), Boc-Val-Pro-Arg-pNA (Sigma Chemical Co.) was used.
Next the effect of the RNIP peptides on the conversion of factor X to Xa was studied by two methods. […] In summary these studies confirmed that the peptides inhibit the clotting cascade by inhibiting the conversion of factor X to Xa.

[1] = system: Salmonella minnesota ReLPS sensitized sheep erythrocytes; assay: LPS hemagglutination assay (MAC); type: binding
Description: For hemagglutination assays, erythrocytes were sensitized with LPS as follows. One ml of 1% erythrocyte suspension (human 0 type, C3H/HeN mouse or sheep) was mixed with 0.2 ml of LPS solution and incubated at 37° C. for 30 min, followed by washing with phosphate buffered saline (PBS), and then the concentration of suspension was adjusted to 1.0%. In the case of S-LPS, the solution was heated at 100° C. for 1 hour before sensitization of erythrocytes. […] Activity of CAP was expressed as a minimum agglutinating concentration (MAC) of CAP. According to the method of Kirikae et al. (1986) Microbiol. Immunol. 30:269-274, 50 μl of 2-fold serial dilution of Re-LPS was added to 50 μl of 1.0% rabbit erythrocyte suspension, and incubated at 37° C. for 3, hour. Minimum agglutinating concentration of Re-LPS was expressed as 1 HA unit.

Pseudomonas aeruginosa = assay: Antibacterial CFU assay; conditions: for IC50: read-out: anti-bacterial IC50 (CFU)
[2] = system: methicillin-resistant Staphylococcus aureus; assay: Antibacterial CFU assay; conditions: for IC50: read-out: IC50, inhibition of CFU
[3] = system: thioglycolate-stimulated murine peritoneal macrophages; assay: LPS-induced tissue factor generation by macrophages; type: cell-based; conditions: for inhibition of LPS induced tissue factor: peptide 1 μg/ml, 6 hr, FIG. 12
Description: […] Cells were cultured for 6 hours prior to assay of tissue factor by clotting assay.
[…] Production of tissue factor after 6 hr. was measured by clotting assay. […] In the absence of LPS no tissue factor is synthesized by these cells.

prothrombin (factor II) = prothrombin (factor II) (Homo sapiens, UniProt P00734); assay: Prothrombin activation by factor Xa; type: biochemical; conditions: Xa formed from tissue factor, factor VII and factor X, FIG. 17B
Description: as §2
a) Factor X activation. Factor X (1 unit/ml, 400 μl) was activated by incubating with a reaction mixture of factor VII (1 unit/ml, 400 μl), tissue factor (5 mg/ml, 100 μl) and CaCl2 at 37° C. for 10 min.
b) Prothrombin (factor II) activation.
c) Hydrolysis of thrombin substrate. To 300 μl of the reaction mixture (step b), thrombin 60 μl of substrate and 240 μl of Tris buffer was added and further incubated for 15 min.

Human plasma [4] = assay: Prothrombin time (PT); type: biochemical; conditions: for inhibition of prothrombin time (PT), words: FIG. 14A
Description: as §1
(§3) Instrumentation: Clotting assays were carried out using a Fibrometer (BioQuest Division, Becton Dickinson; Cokeysville, […]., USA).
Human plasma (100 μl) was incubated with 100 μl of each peptide at 37° C. for 3 min., then 100 μl of tissue factor (250 μg/ml) CaCl2 was added and clotting time was measured.

RAW 264.7 cells = type: cell-based, murine; conditions: for Inhibition of LPS-induced RNI-IC50: LPS-induced (2.5 ng/ml LPS in FIG. 6B); for concentrations at which peptides are active in the bioassay: day-to-day variation
Description: From the sequence of the CAP18 cDNA, it was apparent that the putative N-terminal peptide of CAP18 was in fact an internal fragment of the CAP18 protein. We therefore tried to reconfirm the original protein sequence. Neutrophil-derived heparin bound cationic proteins were prepared as described above and applied to a C18 reverse phase HPLC (FIG. 1). We sequenced the major peaks. Peaks at fractions 14.5 and 15.2 correspond to defensins MCP1 and MCP2 (Territo et al. (1989) J. Clin. Invest. 84:2017-2019), respectively. Fraction 25.8 is macrophage related protein 14 (MRP14) (Odink et al. (1987) Nature 330:80-82). The fraction at 20.3 minutes corresponds to a fragment of CAP18 of approximately 4-5 kD. […] The murine macrophage cell line RAW 264.7 (obtained from ATCC) and thioglycolate-elicited murine peritoneal exudate cells are used to produce RNI. Cells are cultured at 1×10^6 /ml. in RPMI-1640 +2.5% FCS in 24 well plates in the presence or absence of different concentrations of LPS or murine rlFNγ. After 24 hr. incubation at 37° C. the cell free supernatant is collected and tested for the presence of RNI. Accumulation of nitrite in the medium is measured by a colorimetric assay based on the Griess reaction (Green et al. (1982) Anal. Biochem. 126:11) using sodium nitrite as standards. Sample (50 μl) is mixed with 50 μl of Griess reagent (1% sulfanilamide, 0.1% naphthalene diamine dihydrochloride, 2.5% H3 PO4) and after 10 min. at room temperature absorbance is read at 570 nm.

[5] = system: methicillin-sensitive Staphylococcus aureus; assay: Antibacterial CFU assay; conditions: for IC50: read-out: IC50, inhibition of CFU
Candida albicans = assay: Antimicrobial activity; conditions: range 0-20 μg/ml
Human plasma [6] = assay: Activated partial thromboplastin time (APTT); type: biochemical
Description: as §1, §3
Human plasma (100 μl), 100 μl of APTT reagent and 100 μl of peptide was incubated at 37° C. for 5 min after which CaCl2 was added and clotting time measured.

36-1: synthetic rabbit RNIP-derived fragment, amino acids 135-166 of SEQ ID NO:4 (GLRKRLRKFRNKIKEKLKKIGQKIQGLLPKLA)
direct Xa inhibition (factor Xa): No evidence of direct Xa inhibition
IC50 (factor Xa): 8000 to 46000 nM
IC50, Direct Xa (factor Xa): 45 to 250 µg/mL
Hemagglutination MAC (minimum agglutinating concentration) [1]: 3.9 µg/mL
anti-bacterial IC50 (CFU) (Pseudomonas aeruginosa): < 0.25 µg/mL
IC50 (Pseudomonas aeruginosa): < 50 nM
IC50, inhibition of CFU [2]: 0.72 µg/mL
IC50 [2]: 130 nM
inhibition of LPS induced tissue factor [3]: inhibition
IC50, factor II activated by Xa (prothrombin (factor II)): < 1.8 µg/mL
IC50 (prothrombin (factor II); read-out: IC50, factor II activated by Xa): < 300 nM
IC50, Prothrombin time (Human plasma [4]): 2.0 µg/mL
inhibition of prothrombin time (PT), words (Human plasma [4]): inhibited
activity in hemagglutination and inhibition of LPS-induced RNI (RAW 264.7 cells): active
Inhibition of LPS-induced RNI-IC50 (RAW 264.7 cells): 0.08 µg/mL
concentrations at which peptides are active in the bioassay (RAW 264.7 cells): 10 to 50 nM
IC50, inhibition of CFU [5]: 0.58 µg/mL
IC50 [5]: 110 nM
activity versus Candida albicans (Candida albicans): inactive
IC50, Activate Partial Thromboplastin time (Human plasma [6]): 3.8 µg/mL
IC50 (Human plasma [6]; read-out: IC50, Activate Partial Thromboplastin time): 700 nM

RNIP: reactive nitrogen inhibitory protein, amino acids 135-171 of SEQ ID NO:4 (rabbit CAP18 C-terminus); purified from granulocytes or synthetic (#197) (GLRKRLRKFRNKIKEKLKKIGQKIQGLLPKLAPRTDY)
direct Xa inhibition (factor Xa): No evidence of direct Xa inhibition
IC50 (factor Xa): 9000 to 33000 nM
IC50, Direct Xa (factor Xa): 55 to 200 µg/mL
Hemagglutination MAC (minimum agglutinating concentration) [1]: 7.9 µg/mL
anti-bacterial IC50 (CFU) (Pseudomonas aeruginosa; FIG. 6E): < 250 µg/mL
IC50 (Pseudomonas aeruginosa): < 40 nM
IC50, inhibition of CFU [2]: 1 µg/mL
IC50 [2]: 160 nM
inhibition of LPS-induced tissue factor generation when peptide added after LPS ([3]; added as late as 3 hours after the LPS stimulus, FIG. 13): Significant inhibition
inhibition of LPS induced tissue factor [3]: inhibition
IC50, factor II activated by Xa (prothrombin (factor II)): 2.8 µg/mL
IC50 (Human plasma [4]): 300 nM
IC50, Prothrombin time (Human plasma [4]): 1.9 µg/mL
inhibition of prothrombin time (PT), words (Human plasma [4]): inhibited
activity in hemagglutination and inhibition of LPS-induced RNI (RAW 264.7 cells): active
IC50 (RAW 264.7 cells; 2.5 ng/ml LPS, FIG. 6B, read-out: 50% inhibitory concentration (IC50), LPS-induced RNI production): ~30 nM
capacity to inhibit LPS-stimulated nitrogen radical release from macrophages (RAW 264.7 cells; HPLC-purified rabbit peptides, FIG. 5): active
reactive nitrogen intermediates (RNI) (RAW 264.7 cells; LPS (2.5 ng/ml), RNIP (1:1), stimulus alone 27): 4 µM
reactive nitrogen intermediates (RNI) (RAW 264.7 cells; LPS (2.5 ng/ml), RNIP (1:10), stimulus alone 27): 16 µM
reactive nitrogen intermediates (RNI) (RAW 264.7 cells; LPS (2.5 ng/ml), RNIP (1:100), stimulus alone 27): 24 µM
Inhibition of LPS-induced RNI-IC50 (RAW 264.7 cells): about 0.2 μg/ml
Inhibition of LPS-induced RNI-IC50 (RAW 264.7 cells; listed as 197/RNIP): 0.2 µg/mL
reactive nitrogen intermediates (RNI) (RAW 264.7 cells; Murine IFNγ (250 U), RNIP (1:1), stimulus alone 30): 15 µM
reactive nitrogen intermediates (RNI) (RAW 264.7 cells; Murine IFNγ (250 U), RNIP (1:10), stimulus alone 30): 18 µM
reactive nitrogen intermediates (RNI) (RAW 264.7 cells; Murine IFNγ (250 U), RNIP (1:100), stimulus alone 30): 20 µM
concentrations at which peptides are active in the bioassay (RAW 264.7 cells): 10 to 50 nM
IC50, inhibition of CFU [5]: 0.94 µg/mL
IC50 [5]: 150 nM
activity versus Candida albicans (Candida albicans): inactive
IC50, Activate Partial Thromboplastin time (Human plasma [6]): 3.2 µg/mL
